Where two headings read alike, the source gives them in different places.

Data on 25 molecules can be found in patent publication US8541418B2, “Inhibitors of polo-like kinase” (Elan Pharmaceutical, Inc., priority 2009, dated 2013).

What all share (format): biochemical
One assay concerns the target PLK1 (Homo sapiens, UniProt P53350). Kind of assay: PLK TR-FRET peptide assay, PLK1. Background: Time-resolved FRET reads energy transfer from a long-lived donor to a nearby acceptor.
The target of a further assay is PLK2 (Homo sapiens, UniProt Q9NYY3). Kind of assay: PLK TR-FRET peptide assay, PLK2. Particulars: for IC50: PLK TR-FRET peptide assay, read-out: Plk2 IC50; for relative PLK2 activity of the enantiomers: compared with the opposite enantiomer.
The next assay deals with PLK3 (Homo sapiens, UniProt Q9H4B4). Kind of assay: PLK TR-FRET peptide assay, PLK3.
The mark [1] stands for this setting: GST-PLK3, 15 min reaction, read-out: Plk3 IC50.

Chain of PLK2 (Q9NYY3 whole entry): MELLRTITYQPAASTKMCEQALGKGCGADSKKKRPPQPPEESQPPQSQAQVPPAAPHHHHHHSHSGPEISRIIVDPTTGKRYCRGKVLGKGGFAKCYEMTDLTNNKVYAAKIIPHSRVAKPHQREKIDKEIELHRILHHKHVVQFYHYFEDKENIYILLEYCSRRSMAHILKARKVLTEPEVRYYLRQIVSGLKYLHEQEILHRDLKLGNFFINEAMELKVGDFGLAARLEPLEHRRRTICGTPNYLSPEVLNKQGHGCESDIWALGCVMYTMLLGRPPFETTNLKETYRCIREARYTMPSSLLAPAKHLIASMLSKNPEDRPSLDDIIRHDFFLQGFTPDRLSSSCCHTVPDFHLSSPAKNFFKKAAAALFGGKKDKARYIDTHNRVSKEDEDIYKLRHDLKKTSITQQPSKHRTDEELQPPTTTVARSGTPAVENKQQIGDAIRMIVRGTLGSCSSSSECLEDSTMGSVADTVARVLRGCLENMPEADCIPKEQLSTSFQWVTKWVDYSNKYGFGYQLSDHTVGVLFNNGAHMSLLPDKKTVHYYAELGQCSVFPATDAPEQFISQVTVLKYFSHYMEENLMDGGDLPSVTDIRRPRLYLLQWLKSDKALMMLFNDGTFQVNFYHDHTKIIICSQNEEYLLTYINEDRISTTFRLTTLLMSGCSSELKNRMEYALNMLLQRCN
Chain of PLK3 (Q9H4B4 whole entry): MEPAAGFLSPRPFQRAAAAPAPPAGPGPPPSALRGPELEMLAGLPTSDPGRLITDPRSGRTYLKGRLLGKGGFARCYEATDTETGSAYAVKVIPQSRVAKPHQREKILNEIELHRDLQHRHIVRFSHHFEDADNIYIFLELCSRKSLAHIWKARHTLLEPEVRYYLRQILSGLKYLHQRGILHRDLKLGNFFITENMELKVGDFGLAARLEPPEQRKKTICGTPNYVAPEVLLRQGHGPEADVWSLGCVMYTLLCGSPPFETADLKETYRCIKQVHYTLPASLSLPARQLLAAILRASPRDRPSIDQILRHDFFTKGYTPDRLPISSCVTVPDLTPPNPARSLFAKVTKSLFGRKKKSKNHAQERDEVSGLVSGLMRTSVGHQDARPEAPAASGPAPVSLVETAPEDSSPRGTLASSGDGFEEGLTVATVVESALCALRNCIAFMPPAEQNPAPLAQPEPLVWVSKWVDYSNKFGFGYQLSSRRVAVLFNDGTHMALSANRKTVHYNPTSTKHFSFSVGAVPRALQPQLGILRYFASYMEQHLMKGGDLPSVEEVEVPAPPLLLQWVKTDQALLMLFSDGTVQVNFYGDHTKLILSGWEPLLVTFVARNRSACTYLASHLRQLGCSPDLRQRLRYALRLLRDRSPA
Chain of PLK1 (P53350 whole entry): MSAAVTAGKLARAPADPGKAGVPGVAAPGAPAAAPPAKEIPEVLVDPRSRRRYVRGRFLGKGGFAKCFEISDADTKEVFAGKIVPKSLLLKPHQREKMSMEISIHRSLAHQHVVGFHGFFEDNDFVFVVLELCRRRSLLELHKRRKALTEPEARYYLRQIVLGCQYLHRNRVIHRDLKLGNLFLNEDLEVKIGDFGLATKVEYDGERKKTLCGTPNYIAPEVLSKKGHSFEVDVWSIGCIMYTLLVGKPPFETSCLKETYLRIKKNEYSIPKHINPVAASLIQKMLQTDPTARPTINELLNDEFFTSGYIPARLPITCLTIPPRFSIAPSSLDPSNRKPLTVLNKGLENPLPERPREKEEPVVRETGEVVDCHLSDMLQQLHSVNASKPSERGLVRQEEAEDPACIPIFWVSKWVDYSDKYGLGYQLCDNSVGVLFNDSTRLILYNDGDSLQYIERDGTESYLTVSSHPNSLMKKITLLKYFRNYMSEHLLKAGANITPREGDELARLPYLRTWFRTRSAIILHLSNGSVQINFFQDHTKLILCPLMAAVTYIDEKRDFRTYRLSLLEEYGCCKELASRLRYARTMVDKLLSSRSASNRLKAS

By IC50 is commonly meant the concentration needed to halve the response being measured. Consider `CC[C@H]1C(=O)N(C)c2cnc(-c3cnsc3-c3ccc(F)cc3)nc2N1c1cccc(C#N)c1` [Example 392, (S)-3-(7-ethyl-2-(5-(4-fluorophenyl)isothiazol-4-yl)-5-methyl-6-oxo-6,7-dihydropteridin-8(5H)-yl)benzonitrile], for which the IC50 was above 50 µM on PLK1 (GST-PLK1); above 50 µM on PLK2 (GST-PLK2); above 50 µM on PLK3 (GST-PLK3, read-out: Plk3 IC50).

On to `CC[C@@H]1C(=O)N(C)c2cnc(-n3ccnc3-c3ccc(F)c(F)c3)nc2N1C1CC(F)C1` (stereo partly drawn) [Example 229, (R)-2-(2-(3,4-difluorophenyl)-1H-imidazol-1-yl)-7-ethyl-8-(3-fluorocyclobutyl)-5-methyl-7,8-dihydropteridin-6(5H)-one], for which the IC50 is 1 to 10 µM against PLK1 (GST-PLK1, 60 min reaction); below 1 µM on PLK2 (GST-PLK2, 60 min reaction); 1 to 10 µM at PLK3 (setting [1]).

Take `CCC1C(=O)N(C)c2cnc(-n3ccnc3)nc2N1c1cccc(-c2cncnc2)c1` (centres unmarked) [Example 333, 7-ethyl-2-(1H-imidazol-1-yl)-5-methyl-8-(3-(pyrimidin-5-yl)phenyl)-7,8-dihydropteridin-6(5H)-one]: the IC50 against PLK1 (GST-PLK1, 60 min reaction) is 10 to 50 µM; at PLK2 (GST-PLK2, 60 min reaction), 10 to 50 µM; on PLK3 (setting [1]), above 50 µM.

As to `CC[C@@H]1C(=O)N(C)c2cnc(-n3ccnc3-c3ccccc3)nc2N1C1CCC1` [Example 47, (R)-8-cyclobutyl-7-ethyl-5-methyl-2-(2-phenyl-1H-imidazol-1-yl)-7,8-dihydropteridin-6(5H)-one], the IC50 was below 1 µM against PLK1 (GST-PLK1, 60 min reaction); below 1 µM on PLK2 (GST-PLK2, 60 min reaction); 1 to 10 µM on PLK3 (setting [1]).

As to `CC[C@@H]1C(=O)N(C)c2cnc(-n3cnc(-c4nccs4)c3)nc2N1C1CCCC1` [Example 60, (R)-8-cyclopentyl-7-ethyl-5-methyl-2-(4-(thiazol-2-yl)-1H-imidazol-1-yl)-7,8-dihydropteridin-6(5H)-one], the IC50 against PLK1 (GST-PLK1, 60 min reaction) is below 1 µM; at PLK2 (GST-PLK2, 60 min reaction), below 1 µM; at PLK3 (setting [1]), 1 to 10 µM.

As to `CC[C@@H]1C(=O)N(C)c2cnc(-n3ccnc3-c3ccncc3)nc2N1CCC(F)(F)F` [Example 234, (R)-7-ethyl-5-methyl-2-(2-(pyridin-4-yl)-1H-imidazol-1-yl)-8-(3,3,3-trifluoropropyl)-7,8-dihydropteridin-6(5H)-one], the IC50 against PLK1 (GST-PLK1, 60 min reaction) was 1 to 10 µM; on PLK2 (GST-PLK2, 60 min reaction), below 1 µM; on PLK3 (setting [1]), 10 to 50 µM.

For `CC[C@@H]1C(=O)N(C)c2cnc(-n3ccnc3-c3ccc(F)cc3)nc2N1C1CCC1` [Example 50, (R)-8-cyclobutyl-7-ethyl-2-(2-(4-fluorophenyl)-1H-imidazol-1-yl)-5-methyl-7,8-dihydropteridin-6(5H)-one], the IC50 was 1 to 10 µM on PLK1 (GST-PLK1, 60 min reaction); below 1 µM on PLK2 (GST-PLK2, 60 min reaction); 1 to 10 µM on PLK3 (setting [1]).

As for `CC[C@@H]1C(=O)N(C)c2cnc(-n3ccnc3-c3nccs3)nc2N1C(C)C` [Example 151, (R)-7-ethyl-8-isopropyl-5-methyl-2-(2-(thiazol-2-yl)-1H-imidazol-1-yl)-7,8-dihydropteridin-6(5H)-one], the IC50 on PLK1 (GST-PLK1, 60 min reaction) is 1 to 10 µM; on PLK2 (GST-PLK2, 60 min reaction), below 1 µM; on PLK3 (setting [1]), 10 to 50 µM.

For `CC[C@@]12CCCN1c1nc(N3CCN=C3c3ccccc3)ncc1N(C)C2=O` [Example 281, (S)-6a-ethyl-5-methyl-2-(2-phenyl-4,5-dihydro-1H-imidazol-1-yl)-6a,7,8,9-tetrahydropyrrolo[2,1-h]pteridin-6(5H)-one], the IC50 against PLK1 (GST-PLK1, 60 min reaction) was above 50 µM; at PLK2 (GST-PLK2, 60 min reaction), below 1 µM; at PLK3 (setting [1]), 10 to 50 µM.

As for `CC[C@@]12CCCCN1c1nc(-n3ccnc3-c3cccc(F)c3)ncc1N(C)C2=O` [Example 264, (S)-6a-ethyl-2-(2-(3-fluorophenyl)-1H-imidazol-1-yl)-5-methyl-7,8,9,10-tetrahydro-5H-pyrido[2,1-h]pteridin-6(6aH)-one], the IC50 on PLK1 (GST-PLK1, 60 min reaction) was 1 to 10 µM; on PLK2 (GST-PLK2, 60 min reaction) it was below 1 µM; on PLK3 (setting [1]), 10 to 50 µM. Moreover, the “relative PLK2 activity of the enantiomers” value at PLK2 was “more active compound”.

As to `CC[C@@H]1C(=O)N(C)c2cnc(-c3cnc4[nH]ccc4c3)nc2N1C1CCCC1` [Example 32, (R)-8-cyclopentyl-7-ethyl-5-methyl-2-(1H-pyrrolo[2,3-b]pyridin-5-yl)-7,8-dihydropteridin-6(5H)-one], the IC50 is below 1 µM on PLK1 (GST-PLK1, 60 min reaction); below 1 µM at PLK2 (GST-PLK2, 60 min reaction); 1 to 10 µM at PLK3 (setting [1]).

With `CC[C@@H]1C(=O)N(C)c2cnc(-n3ccnc3)nc2N1C1CCOCC1` [Example 295, (R)-7-ethyl-2-(1H-imidazol-1-yl)-5-methyl-8-(tetrahydro-2H-pyran-4-yl)-7,8-dihydropteridin-6(5H)-one], the IC50 against PLK1 (GST-PLK1, 60 min reaction) lay in the range of 1 to 10 µM; at PLK2 (GST-PLK2, 60 min reaction), 1 to 10 µM; at PLK3 (setting [1]) it was 10 to 50 µM.

Turning to `CC[C@@H]1CC[C@@]2(CC)C(=O)N(C)c3cnc(-n4ccnc4C)nc3N12` [Example 325, (6aS,9R)-6a,9-diethyl-5-methyl-2-(2-methyl-1H-imidazol-1-yl)-6a,7,8,9-tetrahydropyrrolo[2,1-h]pteridin-6(5H)-one], the IC50 on PLK1 (GST-PLK1, 60 min reaction) lay in the range of 10 to 50 µM; on PLK2 (GST-PLK2, 60 min reaction), 1 to 10 µM; at PLK3 (setting [1]), 10 to 50 µM.

Turning to `CC[C@@]12CCCCN1c1nc(-n3ccnc3)ncc1N(C)C2=O` [Example 286, (S)-6a-ethyl-2-(1H-imidazol-1-yl)-5-methyl-7,8,9,10-tetrahydro-5H-pyrido[2,1-h]pteridin-6(6aH)-one], the half-maximal inhibitory concentration (IC50) against PLK1 (GST-PLK1, 60 min reaction) was above 50 µM; at PLK2 (GST-PLK2, 60 min reaction), 1 to 10 µM; at PLK3 (setting [1]), above 50 µM. Besides, the “relative PLK2 activity of the enantiomers” value on PLK2 is reported as “more active compound”.

Take `CC[C@@H]1C(=O)N(C)c2cnc(-c3ccncc3NS(=O)(=O)c3ccccc3)nc2N1C(C)C` [Example 120, (R)—N-(4-(7-ethyl-8-isopropyl-5-methyl-6-oxo-5,6,7,8-tetrahydropteridin-2-yl)pyridin-3-yl)benzenesulfonamide]: the IC50 on PLK1 (GST-PLK1, 60 min reaction) was 1 to 10 µM; at PLK2 (GST-PLK2, 60 min reaction) it was 1 to 10 µM; at PLK3 (setting [1]) it was above 50 µM.

On to `CC[C@@H]1C(=O)N(C)c2cnc(-n3ccnc3-c3ccc(C(F)(F)F)cc3)nc2N1C1CCC1` [Example 171, (R)-8-cyclobutyl-7-ethyl-5-methyl-2-(2-(4-(trifluoromethyl)phenyl)-1H-imidazol-1-yl)-7,8-dihydropteridin-6(5H)-one], for which the IC50 against PLK1 (GST-PLK1, 60 min reaction) was 10 to 50 µM; at PLK2 (GST-PLK2, 60 min reaction), below 1 µM; on PLK3 (setting [1]) it was above 50 µM.

As for `CC[C@@H]1C(=O)N(C)c2cnc(-n3ccnc3-c3ccc(F)cc3F)nc2N1C1CCOC1` (stereo partly drawn) [Example 268, (7R)-2-(2-(2,4-difluorophenyl)-1H-imidazol-1-yl)-7-ethyl-5-methyl-8-(tetrahydrofuran-3-yl)-7,8-dihydropteridin-6(5H)-one], the IC50 against PLK1 (GST-PLK1, 60 min reaction) was 1 to 10 µM; on PLK2 (GST-PLK2, 60 min reaction), below 1 µM; on PLK3 (setting [1]), 1 to 10 µM.

Take `CC[C@@H]1C(=O)N(C)c2cnc(-n3ccnc3-c3ccc(F)c(F)c3)nc2N1C1CCOC1` (stereo partly drawn) [Example 191, (7R)-2-(2-(3,4-difluorophenyl)-1H-imidazol-1-yl)-7-ethyl-5-methyl-8-(tetrahydrofuran-3-yl)-7,8-dihydropteridin-6(5H)-one]: the IC50 is 1 to 10 µM against PLK1 (GST-PLK1, 60 min reaction); below 1 µM at PLK2 (GST-PLK2, 60 min reaction); 10 to 50 µM on PLK3 (setting [1]).

Turning to `CC[C@@H]1C(=O)N(C)c2cnc(-n3ccnc3Cl)nc2N1C1CCCC1` [Example 292, (R)-2-(2-chloro-1H-imidazol-1-yl)-8-cyclopentyl-7-ethyl-5-methyl-7,8-dihydropteridin-6(5H)-one], the IC50 against PLK1 (GST-PLK1, 60 min reaction) is 1 to 10 µM; at PLK2 (GST-PLK2, 60 min reaction), below 1 µM; on PLK3 (setting [1]), 10 to 50 µM.

`CC[C@@H]1C(=O)N(C)c2cnc(-c3cncnc3-c3nccs3)nc2N1C(C)C` [Example 197, (R)-7-ethyl-8-isopropyl-5-methyl-2-(4-(thiazol-2-yl)pyrimidin-5-yl)-7,8-dihydropteridin-6(5H)-one]: the IC50 against PLK1 (GST-PLK1, 60 min reaction) was 1 to 10 µM; at PLK2 (GST-PLK2, 60 min reaction), 1 to 10 µM; at PLK3 (setting [1]) it was 1 to 10 µM.

Turning to `CC[C@@H]1C(=O)N(C)c2cnc(-c3ccncc3CNS(C)(=O)=O)nc2N1C1CCCC1` [Example 124, (R)—N-((4-(8-cyclopentyl-7-ethyl-5-methyl-6-oxo-5,6,7,8-tetrahydropteridin-2-yl)pyridin-3-yl)methyl)methanesulfonamide], the IC50 against PLK1 (GST-PLK1, 60 min reaction) is 1 to 10 µM; at PLK2 (GST-PLK2, 60 min reaction) it was 1 to 10 µM; on PLK3 (setting [1]) it was 10 to 50 µM.

For the molecule `CC[C@@H]1CC[C@@]2(CC)C(=O)N(C)c3cnc(-c4cn[nH]c4-c4cscn4)nc3N12` [Example 356, (6aS,9R)-6a,9-diethyl-5-methyl-2-(5-(thiazol-4-yl)-1H-pyrazol-4-yl)-6a,7,8,9-tetrahydropyrrolo[2,1-h]pteridin-6(5H)-one], the IC50 is 1 to 10 µM at PLK1 (GST-PLK1, 60 min reaction); below 1 µM on PLK2 (GST-PLK2, 60 min reaction); 1 to 10 µM on PLK3 (setting [1]).

For the molecule `CC[C@@H]1C(=O)N(C)c2cnc(-c3cn[nH]c3-c3cscn3)nc2N1C1CCCC1` [Example 307, (R)-8-cyclopentyl-7-ethyl-5-methyl-2-(5-(thiazol-4-yl)-1H-pyrazol-4-yl)-7,8-dihydropteridin-6(5H)-one], the half-inhibitory concentration (IC50) against PLK1 (GST-PLK1, 60 min reaction) was below 1 µM; at PLK2 (GST-PLK2, 60 min reaction), below 1 µM; on PLK3 (setting [1]), below 1 µM.

On to `CC[C@]12CCCCN1c1nc(-n3ccnc3)ncc1N(C)C2=O` [Example 287, (R)-6a-ethyl-2-(1H-imidazol-1-yl)-5-methyl-7,8,9,10-tetrahydro-5H-pyrido[2,1-h]pteridin-6(6aH)-one], for which the IC50 at PLK1 (GST-PLK1, 60 min reaction) is above 50 µM; at PLK2 (GST-PLK2, 60 min reaction), above 50 µM; on PLK3 (setting [1]) it was above 50 µM.

For the molecule `CC[C@@H]1C(=O)N(C)c2cnc(-c3ccncc3NC(=O)CC(C)(C)C)nc2N1C(C)C` [Example 103, (R)—N-(4-(7-ethyl-8-isopropyl-5-methyl-6-oxo-5,6,7,8-tetrahydropteridin-2-yl)pyridin-3-yl)-3,3-dimethylbutanamide], the IC50 against PLK1 (GST-PLK1, 60 min reaction) was in the range of 10 to 50 µM; at PLK2 (GST-PLK2, 60 min reaction), 10 to 50 µM; at PLK3 (setting [1]), 10 to 50 µM.
